Data: article PMC11765156 (International Journal of Molecular Sciences, 2025)
Converted amounts (≈) assume the structure as drawn.

Legend:
Balanus amphitrite = experiment: Anti-settlement assay with barnacle cyprid larvae (settlement inhibition and mortality, 48 h); format: in vivo; settings: for EC50: Amphibalanus amphitrite, read-out: EC50 (inhibition of barnacle larval settlement); for LC50/EC50: Balanus amphitrite, ratio >15 indicating low toxicity
Description: (§1) Compounds dissolved in DMSO were sequentially administered to the wells, starting with a concentration of 25 µg/mL and proceeding with serial half-logarithmic dilutions. The volume of the compound in each well was maintained at […], with seawater as the blank control, DMSO as the negative control, and SeaNine 211 serving as the positive control. Utilizing a stereo microscope, a 1 mL micropipette was employed to introduce 995 μL of seawater and between 21 and 25 cyprid larvae into each well of a 24-well plate. Subsequently, the plates were incubated in a darkened, temperature-controlled environment for 48 h. […] This observation facilitated the calculation of mortality and settlement rates of the barnacle cyprids, crucial for assessing the antifouling properties of the compounds. The determination of EC50 values for the inhibition of barnacle larval attachment and LC50 values for larval mortality offered an evaluation of the compounds’ efficacy in deterring barnacle larval adherence and their associated toxicity.

[1] = as above; format: in vivo, Balanus amphitrite; settings: in vivo, other: larvae immersed in seawater containing the compound; Balanus amphitrite cyprid larvae, 48 h incubation; read-out: LC50 (larval mortality)
Description: as §1

zebrafish embryos = experiment: Zebrafish embryo toxicity assay; format: in vivo; settings: for phenotype of zebrafish embryos versus control: 48 h
Description: (§2) The zebrafish embryo toxicity assay was conducted according to the method described by Huang et al., with slight modifications. Test compounds were dissolved in 0.5% DMSO to prepare a concentration series (0.1, 1, 5, 25, 50 μg/mL), which was then dispensed into 24-well plates. Fifteen cleavage-stage embryos were added to each well. The plates were incubated at 28 °C, and embryonic development was evaluated under a stereomicroscope after 48 h of exposure.

[2] = system: Balanus amphitrite cyprid larvae; experiment: Rescue (resuscitation) assay of Balanus amphitrite cyprid larvae; format: in vivo; settings: 1 μg/mL for 24 h, rinsed, settlement observed after 48 h
[3] = Zebrafish embryo toxicity assay; format: in vivo; settings: in vivo, other: embryos immersed in compound solution in wells, 48 h exposure, read-out: LC50 at 48 h post-fertilization
Description: as §2

[4] = Balanus amphitrite cyprid larvae, 48 h incubation

Compound	EC50 (Balanus amphitrite; [4]) [µg/mL]	LC50/EC50 (Balanus amphitrite)	LC50 at 48 h [1] [µg/mL]	other results
COC(=O)C12OCC34C(CC5C(C)=C(O)C(=O)CC5(C)C3C(O)C1O)OC(=O)C(OC(=O)Cc1cccc(F)c1)C24 (stereo not shown) [Compound 8, 15-O-(5′-Fluorophenylacetyl)-Bruceolide]	1.12 ± 0.103 (≈ 1.95 µM)	5.2723	5.91 ± 1.03 (≈ 10.3 µM)	
COC(=O)C12OCC34C(CC5C(C)=C(O)C(=O)CC5(C)C3C(O)C1O)OC(=O)C(OC(=O)CCCCBr)C24 (stereo not shown) [Compound 1, 15-O-(5′-Bromovaleryl)-Bruceolide]	0.523 ± 0.123 (≈ 0.87 µM)		0.842 ± 0.112 (≈ 1.4 µM)	
COC(=O)C12OCC34C(CC5C(C)=C(O)C(=O)CC5(C)C3C(O)C1O)OC(=O)C(OC(=O)c1ccc(Cl)s1)C24 (stereo not shown) [Compound 5]	2.02 ± 0.237 (≈ 3.47 µM)	3.0330	6.14 ± 0.173 (≈ 10.5 µM)	
CCCCCCCCn1sc(Cl)c(Cl)c1=O [SeaNine 211, reference compound]				EC50 (inhibition of barnacle larval settlement) (Balanus amphitrite; [4]): 1.9363 ± 0.4128 µg/mL; LC50 (larval mortality) (Balanus amphitrite; [4]): 33.9306 ± 2.0625 µg/mL (≈ 120 µM); LC50 at 48 h post-fertilization (zebrafish embryos; 48 h exposure): 7.2236 µg/mL (≈ 25.6 µM)
COC(=O)C12OCC34C(CC5C(C)=C(O)C(=O)CC5(C)C3C(O)C1O)OC(=O)C(OC(=O)c1ccc(Cl)nc1)C24 (stereo not shown) [Compound 6]	0.34 ± 0.104 (≈ 0.589 µM)	16.9633	5.77 ± 2.54 (≈ 9.98 µM)	recovery rate [2]: high recovery rates; LC50 at 48 h [3]: 8.18 µg/mL (≈ 14.2 µM); phenotype of zebrafish embryos versus control (zebrafish embryos): no significant phenotypic differences
COC(=O)C12OCC34C(CC5C(C)=C(O)C(=O)CC5(C)C3C(O)C1O)OC(=O)C(OC(=O)CCCCl)C24 (stereo not shown) [Compound 3, 15-O-(4′-Chlorobutanoyl)-Bruceolide]	0.147 ± 0.0332 (≈ 0.272 µM)	42.2922	6.24 ± 2.62 (≈ 11.5 µM)	recovery rate [2]: high recovery rates; resuscitation rate [2]: 71.11%; LC50 at 48 h [3]: 15.8 µg/mL (≈ 29 µM); phenotype of zebrafish embryos versus control (zebrafish embryos): no significant phenotypic differences
COC(=O)C12OCC34C(CC5C(C)=C(O)C(=O)CC5(C)C3C(O)C1O)OC(=O)C(OC(=O)c1ccc(C(C)=O)s1)C24 (stereo not shown) [Compound 14, 15-O-(3′-Acetyl-Thiophen-6′-Carbonyl)-Bruceolide]	2.15 ± 0.727 (≈ 3.63 µM)	3.6926	7.92 ± 0.243 (≈ 13.4 µM)	
COC(=O)C12OCC34C(CC5C(C)=C(O)C(=O)CC5(C)C3C(O)C1O)OC(=O)C(OC(=O)CCC#N)C24 (stereo not shown) [Compound 12, 15-O-(3′-Cyanopropanoyl)-Bruceolide]	1.39 ± 0.135 (≈ 2.67 µM)	2.0219	2.8 ± 0.122 (≈ 5.39 µM)	
COC(=O)C12OCC34C(CC5C(C)=C(O)C(=O)CC5(C)C3C(O)C1O)OC(=O)C(OC(=O)Cc1cccc(C#N)c1)C24 (stereo not shown) [Compound 13, 15-O-(5′-Cyano-Phenyl-3′-Acetyl)-Bruceolide]	1.84 ± 0.179 (≈ 3.17 µM)	3.5854	6.61 ± 0.112 (≈ 11.4 µM)	
COC(=O)C12OCC34C(CC5C(C)=C(O)C(=O)CC5(C)C3C(O)C1O)OC(=O)C(OC(=O)CCCCCl)C24 (stereo not shown) [Compound 2, 15-O-(5′-Chlorovaleryl)-Bruceolide]	0.417 ± 0.185 (≈ 0.748 µM)	2.6978	1.12 ± 0.144 (≈ 2.02 µM)	
COC(=O)C12OCC34C(CC5C(C)=C(O)C(=O)CC5(C)C3C(O)C1O)OC(=O)C(OC(=O)c1ccc(Cl)cc1)C24 (stereo not shown) [Compound 4]	0.353 ± 0.101 (≈ 0.611 µM)	2.1018	0.741 ± 0.082 (≈ 1.28 µM)	
brusatol [B1, reference compound]				EC50 (inhibition of barnacle larval settlement) (Balanus amphitrite; [4]): 2.7826 ± 0.6874 µg/mL
